Source: the kinase profiling compilation of Christmann-Franck et al. (2016)

target: CLK3 (human) (UniProt P49761); test: radiometric filter-binding kinase assay, Kinase HotSpot; conditions: compound 0.5 µM; ATP 10 µM

SMILES	residual activity
O=c1cc(-c2cccc3c2Sc2ccccc2S3)oc(N2CCOCC2)c1	121%
Nc1nc(Nc2ccc(S(N)(=O)=O)cc2)nn1C(=S)Nc1c(F)cccc1F	4.64%
O=C1Cc2c([nH]c3ccc([N+](=O)[O-])cc23)-c2ccccc2N1	106%
CC(C)(C)c1nc2c3ccc(F)cc3c3c(=O)[nH]ccc3c2[nH]1	50.5%
O=C(NC(NC(=S)Nc1ccc(F)c([N+](=O)[O-])c1)C(Cl)(Cl)Cl)C(c1ccccc1)c1ccccc1 (configuration not stated)	124%
O=C1Nc2ccccc2/C1=C\c1c(Cl)[nH]c2ccccc12	102%

target: DYRK1A (human) (UniProt Q13627); test: as above; conditions: compound 0.5 µM; ATP 10 µM

SMILES	residual activity
O=c1cc(-c2cccc3c2Sc2ccccc2S3)oc(N2CCOCC2)c1	95%
Nc1nc(Nc2ccc(S(N)(=O)=O)cc2)nn1C(=S)Nc1c(F)cccc1F	15.3%
O=C1Cc2c([nH]c3ccc([N+](=O)[O-])cc23)-c2ccccc2N1	86.2%
CC(C)(C)c1nc2c3ccc(F)cc3c3c(=O)[nH]ccc3c2[nH]1	102%
O=C(NC(NC(=S)Nc1ccc(F)c([N+](=O)[O-])c1)C(Cl)(Cl)Cl)C(c1ccccc1)c1ccccc1 (configuration not stated)	99.8%
O=C1Nc2ccccc2/C1=C\c1c(Cl)[nH]c2ccccc12	107%

target: MARK3 (human) (UniProt P27448); test: as above; conditions: compound 0.5 µM; ATP 10 µM

SMILES	residual activity
O=c1cc(-c2cccc3c2Sc2ccccc2S3)oc(N2CCOCC2)c1	106%
Nc1nc(Nc2ccc(S(N)(=O)=O)cc2)nn1C(=S)Nc1c(F)cccc1F	0.29%
O=C1Cc2c([nH]c3ccc([N+](=O)[O-])cc23)-c2ccccc2N1	67.7%
CC(C)(C)c1nc2c3ccc(F)cc3c3c(=O)[nH]ccc3c2[nH]1	55.9%
O=C(NC(NC(=S)Nc1ccc(F)c([N+](=O)[O-])c1)C(Cl)(Cl)Cl)C(c1ccccc1)c1ccccc1 (configuration not stated)	104%
O=C1Nc2ccccc2/C1=C\c1c(Cl)[nH]c2ccccc12	104%

target: MKNK2 (human) (UniProt Q9HBH9); test: as above; conditions: compound 0.5 µM; ATP 10 µM

SMILES	residual activity
O=c1cc(-c2cccc3c2Sc2ccccc2S3)oc(N2CCOCC2)c1	117%
Nc1nc(Nc2ccc(S(N)(=O)=O)cc2)nn1C(=S)Nc1c(F)cccc1F	17.2%
O=C1Cc2c([nH]c3ccc([N+](=O)[O-])cc23)-c2ccccc2N1	92.9%
CC(C)(C)c1nc2c3ccc(F)cc3c3c(=O)[nH]ccc3c2[nH]1	62%
O=C(NC(NC(=S)Nc1ccc(F)c([N+](=O)[O-])c1)C(Cl)(Cl)Cl)C(c1ccccc1)c1ccccc1 (configuration not stated)	135%
O=C1Nc2ccccc2/C1=C\c1c(Cl)[nH]c2ccccc12	93.5%

target: BLK (human) (UniProt P51451); test: as above; conditions: compound 0.5 µM; ATP 10 µM
Sequence (P51451 whole entry, looked up): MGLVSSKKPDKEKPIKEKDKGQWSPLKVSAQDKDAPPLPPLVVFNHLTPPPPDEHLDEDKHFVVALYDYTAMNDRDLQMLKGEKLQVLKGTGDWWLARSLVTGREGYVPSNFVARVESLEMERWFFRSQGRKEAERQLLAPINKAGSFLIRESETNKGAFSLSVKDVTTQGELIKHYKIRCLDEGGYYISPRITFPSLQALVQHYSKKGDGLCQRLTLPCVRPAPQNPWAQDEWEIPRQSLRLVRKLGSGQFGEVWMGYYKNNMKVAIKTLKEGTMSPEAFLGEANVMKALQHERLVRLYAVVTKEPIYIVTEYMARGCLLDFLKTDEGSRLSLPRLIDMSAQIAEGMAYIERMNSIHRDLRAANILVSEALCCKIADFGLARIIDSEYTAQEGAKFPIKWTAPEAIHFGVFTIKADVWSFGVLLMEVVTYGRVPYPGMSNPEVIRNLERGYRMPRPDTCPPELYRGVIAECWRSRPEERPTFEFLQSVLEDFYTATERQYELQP

SMILES	residual activity
O=c1cc(-c2cccc3c2Sc2ccccc2S3)oc(N2CCOCC2)c1	96.2%
Nc1nc(Nc2ccc(S(N)(=O)=O)cc2)nn1C(=S)Nc1c(F)cccc1F	38.6%
O=C1Cc2c([nH]c3ccc([N+](=O)[O-])cc23)-c2ccccc2N1	94.2%
CC(C)(C)c1nc2c3ccc(F)cc3c3c(=O)[nH]ccc3c2[nH]1	93.5%
O=C(NC(NC(=S)Nc1ccc(F)c([N+](=O)[O-])c1)C(Cl)(Cl)Cl)C(c1ccccc1)c1ccccc1 (configuration not stated)	110%
O=C1Nc2ccccc2/C1=C\c1c(Cl)[nH]c2ccccc12	95.4%

target: NEK11 (human) (UniProt Q8NG66); test: as above; conditions: compound 0.5 µM; ATP 10 µM
Sequence (Q8NG66 whole entry, looked up): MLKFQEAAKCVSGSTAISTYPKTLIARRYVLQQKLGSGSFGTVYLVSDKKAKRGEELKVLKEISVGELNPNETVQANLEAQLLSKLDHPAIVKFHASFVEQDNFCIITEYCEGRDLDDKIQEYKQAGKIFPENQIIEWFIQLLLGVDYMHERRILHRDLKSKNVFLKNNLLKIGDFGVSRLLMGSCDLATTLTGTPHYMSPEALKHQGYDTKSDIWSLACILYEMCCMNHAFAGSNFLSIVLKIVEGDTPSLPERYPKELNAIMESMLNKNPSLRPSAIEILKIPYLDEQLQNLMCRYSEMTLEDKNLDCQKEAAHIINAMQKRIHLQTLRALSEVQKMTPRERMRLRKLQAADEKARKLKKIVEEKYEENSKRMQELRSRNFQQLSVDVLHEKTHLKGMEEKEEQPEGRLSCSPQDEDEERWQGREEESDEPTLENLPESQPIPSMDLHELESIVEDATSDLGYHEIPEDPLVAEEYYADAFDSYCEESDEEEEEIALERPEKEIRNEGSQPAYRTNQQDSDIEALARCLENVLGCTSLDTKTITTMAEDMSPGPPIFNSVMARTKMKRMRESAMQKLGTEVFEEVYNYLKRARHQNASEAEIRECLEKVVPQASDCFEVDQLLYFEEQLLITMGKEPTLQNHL

SMILES	residual activity
O=c1cc(-c2cccc3c2Sc2ccccc2S3)oc(N2CCOCC2)c1	88.5%
Nc1nc(Nc2ccc(S(N)(=O)=O)cc2)nn1C(=S)Nc1c(F)cccc1F	101%
O=C1Cc2c([nH]c3ccc([N+](=O)[O-])cc23)-c2ccccc2N1	95.4%
CC(C)(C)c1nc2c3ccc(F)cc3c3c(=O)[nH]ccc3c2[nH]1	92.4%
O=C(NC(NC(=S)Nc1ccc(F)c([N+](=O)[O-])c1)C(Cl)(Cl)Cl)C(c1ccccc1)c1ccccc1 (configuration not stated)	92.2%
O=C1Nc2ccccc2/C1=C\c1c(Cl)[nH]c2ccccc12	98.5%

target: NUAK2 (human) (UniProt Q9H093); test: as above; conditions: compound 0.5 µM; ATP 10 µM
Sequence (Q9H093 whole entry, looked up): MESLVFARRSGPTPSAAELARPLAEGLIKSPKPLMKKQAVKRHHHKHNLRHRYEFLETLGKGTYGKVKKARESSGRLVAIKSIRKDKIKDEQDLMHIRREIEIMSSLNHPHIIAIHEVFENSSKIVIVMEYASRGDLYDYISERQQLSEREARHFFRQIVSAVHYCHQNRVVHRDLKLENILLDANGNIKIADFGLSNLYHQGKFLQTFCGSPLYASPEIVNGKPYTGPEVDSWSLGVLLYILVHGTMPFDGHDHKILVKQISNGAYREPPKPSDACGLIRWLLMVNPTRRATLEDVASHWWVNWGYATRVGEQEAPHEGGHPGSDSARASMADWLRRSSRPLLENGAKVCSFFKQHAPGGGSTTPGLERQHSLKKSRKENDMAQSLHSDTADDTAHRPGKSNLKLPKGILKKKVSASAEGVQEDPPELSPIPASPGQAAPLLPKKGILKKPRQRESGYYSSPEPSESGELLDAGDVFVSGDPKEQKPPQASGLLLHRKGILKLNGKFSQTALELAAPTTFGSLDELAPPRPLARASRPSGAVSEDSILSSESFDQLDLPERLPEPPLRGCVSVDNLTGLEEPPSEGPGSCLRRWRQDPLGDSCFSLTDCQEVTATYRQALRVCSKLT

SMILES	residual activity
O=c1cc(-c2cccc3c2Sc2ccccc2S3)oc(N2CCOCC2)c1	109%
Nc1nc(Nc2ccc(S(N)(=O)=O)cc2)nn1C(=S)Nc1c(F)cccc1F	9.73%
O=C1Cc2c([nH]c3ccc([N+](=O)[O-])cc23)-c2ccccc2N1	68.6%
CC(C)(C)c1nc2c3ccc(F)cc3c3c(=O)[nH]ccc3c2[nH]1	66%
O=C(NC(NC(=S)Nc1ccc(F)c([N+](=O)[O-])c1)C(Cl)(Cl)Cl)C(c1ccccc1)c1ccccc1 (configuration not stated)	108%
O=C1Nc2ccccc2/C1=C\c1c(Cl)[nH]c2ccccc12	106%

target: CSK (human) (UniProt P41240); test: as above; conditions: compound 0.5 µM; ATP 10 µM
Sequence (P41240 whole entry, looked up): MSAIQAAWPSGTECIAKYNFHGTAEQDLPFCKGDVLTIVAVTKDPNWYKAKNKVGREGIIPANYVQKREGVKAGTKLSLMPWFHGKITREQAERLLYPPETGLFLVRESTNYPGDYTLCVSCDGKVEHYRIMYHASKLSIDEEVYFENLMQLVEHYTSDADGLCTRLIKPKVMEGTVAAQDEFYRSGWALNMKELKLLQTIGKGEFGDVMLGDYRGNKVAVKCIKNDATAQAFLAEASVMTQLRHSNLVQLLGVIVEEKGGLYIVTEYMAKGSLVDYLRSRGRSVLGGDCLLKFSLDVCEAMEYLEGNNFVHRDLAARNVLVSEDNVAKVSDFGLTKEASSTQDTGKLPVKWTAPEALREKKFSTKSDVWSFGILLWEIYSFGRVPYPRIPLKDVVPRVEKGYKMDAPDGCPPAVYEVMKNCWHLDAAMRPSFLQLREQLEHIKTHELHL

SMILES	residual activity
O=c1cc(-c2cccc3c2Sc2ccccc2S3)oc(N2CCOCC2)c1	95.7%
Nc1nc(Nc2ccc(S(N)(=O)=O)cc2)nn1C(=S)Nc1c(F)cccc1F	76.8%
O=C1Cc2c([nH]c3ccc([N+](=O)[O-])cc23)-c2ccccc2N1	96.6%
CC(C)(C)c1nc2c3ccc(F)cc3c3c(=O)[nH]ccc3c2[nH]1	114%
O=C(NC(NC(=S)Nc1ccc(F)c([N+](=O)[O-])c1)C(Cl)(Cl)Cl)C(c1ccccc1)c1ccccc1 (configuration not stated)	99.3%
O=C1Nc2ccccc2/C1=C\c1c(Cl)[nH]c2ccccc12	101%

target: PRKD2 (human) (UniProt Q9BZL6); test: as above; conditions: compound 0.5 µM; ATP 10 µM

SMILES	residual activity
O=c1cc(-c2cccc3c2Sc2ccccc2S3)oc(N2CCOCC2)c1	105%
Nc1nc(Nc2ccc(S(N)(=O)=O)cc2)nn1C(=S)Nc1c(F)cccc1F	9.05%
O=C1Cc2c([nH]c3ccc([N+](=O)[O-])cc23)-c2ccccc2N1	101%
CC(C)(C)c1nc2c3ccc(F)cc3c3c(=O)[nH]ccc3c2[nH]1	6.13%
O=C(NC(NC(=S)Nc1ccc(F)c([N+](=O)[O-])c1)C(Cl)(Cl)Cl)C(c1ccccc1)c1ccccc1 (configuration not stated)	107%
O=C1Nc2ccccc2/C1=C\c1c(Cl)[nH]c2ccccc12	90.2%

target: IRAK4 (human) (UniProt Q9NWZ3); test: as above; conditions: compound 0.5 µM; ATP 10 µM
Sequence (Q9NWZ3 whole entry, looked up): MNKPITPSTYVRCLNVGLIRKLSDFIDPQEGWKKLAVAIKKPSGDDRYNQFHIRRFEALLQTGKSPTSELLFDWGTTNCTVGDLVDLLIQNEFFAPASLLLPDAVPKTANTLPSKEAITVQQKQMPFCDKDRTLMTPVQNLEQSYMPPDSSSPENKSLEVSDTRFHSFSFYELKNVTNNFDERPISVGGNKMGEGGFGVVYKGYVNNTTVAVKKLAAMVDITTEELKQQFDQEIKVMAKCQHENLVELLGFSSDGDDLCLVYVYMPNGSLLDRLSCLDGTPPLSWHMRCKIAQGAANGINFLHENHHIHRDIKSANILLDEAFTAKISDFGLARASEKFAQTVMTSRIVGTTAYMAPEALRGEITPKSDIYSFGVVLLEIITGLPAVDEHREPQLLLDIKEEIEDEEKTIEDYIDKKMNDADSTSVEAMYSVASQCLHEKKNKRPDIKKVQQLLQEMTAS

SMILES	residual activity
O=c1cc(-c2cccc3c2Sc2ccccc2S3)oc(N2CCOCC2)c1	160%
Nc1nc(Nc2ccc(S(N)(=O)=O)cc2)nn1C(=S)Nc1c(F)cccc1F	19.6%
O=C1Cc2c([nH]c3ccc([N+](=O)[O-])cc23)-c2ccccc2N1	167%
CC(C)(C)c1nc2c3ccc(F)cc3c3c(=O)[nH]ccc3c2[nH]1	96.3%
O=C(NC(NC(=S)Nc1ccc(F)c([N+](=O)[O-])c1)C(Cl)(Cl)Cl)C(c1ccccc1)c1ccccc1 (configuration not stated)	191%
O=C1Nc2ccccc2/C1=C\c1c(Cl)[nH]c2ccccc12	102%

target: MAP3K14 (human) (UniProt Q99558); test: as above; conditions: compound 0.5 µM; ATP 10 µM
Sequence (Q99558 whole entry, looked up): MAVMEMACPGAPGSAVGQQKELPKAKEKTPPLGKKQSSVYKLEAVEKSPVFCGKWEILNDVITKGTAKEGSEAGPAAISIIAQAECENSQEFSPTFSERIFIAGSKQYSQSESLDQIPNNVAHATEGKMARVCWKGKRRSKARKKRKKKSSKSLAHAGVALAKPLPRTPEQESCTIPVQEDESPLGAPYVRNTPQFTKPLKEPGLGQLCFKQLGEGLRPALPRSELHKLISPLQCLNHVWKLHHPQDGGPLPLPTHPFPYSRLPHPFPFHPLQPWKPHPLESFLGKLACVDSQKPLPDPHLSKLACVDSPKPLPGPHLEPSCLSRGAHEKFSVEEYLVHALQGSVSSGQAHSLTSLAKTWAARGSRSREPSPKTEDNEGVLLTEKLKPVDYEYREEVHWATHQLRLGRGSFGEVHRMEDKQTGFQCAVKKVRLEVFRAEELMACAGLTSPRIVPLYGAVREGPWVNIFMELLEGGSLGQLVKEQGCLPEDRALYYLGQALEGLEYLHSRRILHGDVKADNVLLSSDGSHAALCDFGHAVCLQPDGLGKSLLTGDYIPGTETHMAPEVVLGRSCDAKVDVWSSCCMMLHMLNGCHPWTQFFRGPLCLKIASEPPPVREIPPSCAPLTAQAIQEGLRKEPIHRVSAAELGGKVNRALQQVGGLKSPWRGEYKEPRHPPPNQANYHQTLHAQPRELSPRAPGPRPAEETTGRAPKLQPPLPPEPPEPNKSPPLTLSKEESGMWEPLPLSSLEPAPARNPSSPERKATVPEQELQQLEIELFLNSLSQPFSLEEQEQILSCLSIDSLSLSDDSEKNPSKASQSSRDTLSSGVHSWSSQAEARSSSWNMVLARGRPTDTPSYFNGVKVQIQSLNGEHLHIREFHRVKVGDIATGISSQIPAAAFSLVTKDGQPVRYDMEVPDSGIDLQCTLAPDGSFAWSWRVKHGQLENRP

SMILES	residual activity
O=c1cc(-c2cccc3c2Sc2ccccc2S3)oc(N2CCOCC2)c1	94.9%
Nc1nc(Nc2ccc(S(N)(=O)=O)cc2)nn1C(=S)Nc1c(F)cccc1F	29.1%
O=C1Cc2c([nH]c3ccc([N+](=O)[O-])cc23)-c2ccccc2N1	132%
CC(C)(C)c1nc2c3ccc(F)cc3c3c(=O)[nH]ccc3c2[nH]1	71.3%
O=C(NC(NC(=S)Nc1ccc(F)c([N+](=O)[O-])c1)C(Cl)(Cl)Cl)C(c1ccccc1)c1ccccc1 (configuration not stated)	92.1%
O=C1Nc2ccccc2/C1=C\c1c(Cl)[nH]c2ccccc12	92.6%

target: ITK (human) (UniProt Q08881); test: as above; conditions: compound 0.5 µM; ATP 10 µM

SMILES	residual activity
O=c1cc(-c2cccc3c2Sc2ccccc2S3)oc(N2CCOCC2)c1	96.6%
Nc1nc(Nc2ccc(S(N)(=O)=O)cc2)nn1C(=S)Nc1c(F)cccc1F	61%
O=C1Cc2c([nH]c3ccc([N+](=O)[O-])cc23)-c2ccccc2N1	97.1%
CC(C)(C)c1nc2c3ccc(F)cc3c3c(=O)[nH]ccc3c2[nH]1	86%
O=C(NC(NC(=S)Nc1ccc(F)c([N+](=O)[O-])c1)C(Cl)(Cl)Cl)C(c1ccccc1)c1ccccc1 (configuration not stated)	94.9%
O=C1Nc2ccccc2/C1=C\c1c(Cl)[nH]c2ccccc12	104%

target: MAPK1 (human) (UniProt P28482); test: as above; conditions: compound 0.5 µM; ATP 10 µM
Sequence (P28482 whole entry, looked up): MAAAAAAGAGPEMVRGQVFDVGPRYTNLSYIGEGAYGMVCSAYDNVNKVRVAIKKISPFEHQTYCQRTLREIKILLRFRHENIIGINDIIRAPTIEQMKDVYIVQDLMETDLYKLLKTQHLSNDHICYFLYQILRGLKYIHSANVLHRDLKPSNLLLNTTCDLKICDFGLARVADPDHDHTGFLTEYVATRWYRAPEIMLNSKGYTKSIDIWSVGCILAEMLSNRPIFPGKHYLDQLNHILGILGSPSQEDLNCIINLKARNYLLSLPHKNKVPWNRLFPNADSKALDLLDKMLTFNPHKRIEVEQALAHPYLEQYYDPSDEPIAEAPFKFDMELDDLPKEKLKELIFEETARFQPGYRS

SMILES	residual activity
O=c1cc(-c2cccc3c2Sc2ccccc2S3)oc(N2CCOCC2)c1	100%
Nc1nc(Nc2ccc(S(N)(=O)=O)cc2)nn1C(=S)Nc1c(F)cccc1F	76.2%
O=C1Cc2c([nH]c3ccc([N+](=O)[O-])cc23)-c2ccccc2N1	106%
CC(C)(C)c1nc2c3ccc(F)cc3c3c(=O)[nH]ccc3c2[nH]1	96.1%
O=C(NC(NC(=S)Nc1ccc(F)c([N+](=O)[O-])c1)C(Cl)(Cl)Cl)C(c1ccccc1)c1ccccc1 (configuration not stated)	97.6%
O=C1Nc2ccccc2/C1=C\c1c(Cl)[nH]c2ccccc12	96.4%

target: TBK1 (human) (UniProt Q9UHD2); test: as above; conditions: compound 0.5 µM; ATP 10 µM

SMILES	residual activity
O=c1cc(-c2cccc3c2Sc2ccccc2S3)oc(N2CCOCC2)c1	88.5%
Nc1nc(Nc2ccc(S(N)(=O)=O)cc2)nn1C(=S)Nc1c(F)cccc1F	10.3%
O=C1Cc2c([nH]c3ccc([N+](=O)[O-])cc23)-c2ccccc2N1	82.4%
CC(C)(C)c1nc2c3ccc(F)cc3c3c(=O)[nH]ccc3c2[nH]1	24%
O=C(NC(NC(=S)Nc1ccc(F)c([N+](=O)[O-])c1)C(Cl)(Cl)Cl)C(c1ccccc1)c1ccccc1 (configuration not stated)	98.7%
O=C1Nc2ccccc2/C1=C\c1c(Cl)[nH]c2ccccc12	95.9%

target: CSNK2A2 (human) (UniProt P19784); test: as above; conditions: compound 0.5 µM; ATP 10 µM
Sequence (P19784 whole entry, looked up): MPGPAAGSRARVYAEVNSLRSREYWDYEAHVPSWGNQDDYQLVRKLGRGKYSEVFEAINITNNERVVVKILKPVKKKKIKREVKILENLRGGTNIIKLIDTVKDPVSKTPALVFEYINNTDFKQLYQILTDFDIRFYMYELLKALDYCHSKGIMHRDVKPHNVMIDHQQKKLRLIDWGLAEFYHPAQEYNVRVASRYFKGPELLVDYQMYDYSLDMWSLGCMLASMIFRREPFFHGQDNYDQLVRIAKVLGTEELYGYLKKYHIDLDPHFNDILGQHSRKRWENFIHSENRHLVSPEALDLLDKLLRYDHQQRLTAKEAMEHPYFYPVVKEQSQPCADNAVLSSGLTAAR

SMILES	residual activity
O=c1cc(-c2cccc3c2Sc2ccccc2S3)oc(N2CCOCC2)c1	96%
Nc1nc(Nc2ccc(S(N)(=O)=O)cc2)nn1C(=S)Nc1c(F)cccc1F	81.9%
O=C1Cc2c([nH]c3ccc([N+](=O)[O-])cc23)-c2ccccc2N1	64.4%
CC(C)(C)c1nc2c3ccc(F)cc3c3c(=O)[nH]ccc3c2[nH]1	91.5%
O=C(NC(NC(=S)Nc1ccc(F)c([N+](=O)[O-])c1)C(Cl)(Cl)Cl)C(c1ccccc1)c1ccccc1 (configuration not stated)	97%
O=C1Nc2ccccc2/C1=C\c1c(Cl)[nH]c2ccccc12	94.3%

target: CAMK4 (human) (UniProt Q16566); test: as above; conditions: compound 0.5 µM; ATP 10 µM

SMILES	residual activity
O=c1cc(-c2cccc3c2Sc2ccccc2S3)oc(N2CCOCC2)c1	94%
Nc1nc(Nc2ccc(S(N)(=O)=O)cc2)nn1C(=S)Nc1c(F)cccc1F	98.8%
O=C1Cc2c([nH]c3ccc([N+](=O)[O-])cc23)-c2ccccc2N1	89.2%
CC(C)(C)c1nc2c3ccc(F)cc3c3c(=O)[nH]ccc3c2[nH]1	81.8%
O=C(NC(NC(=S)Nc1ccc(F)c([N+](=O)[O-])c1)C(Cl)(Cl)Cl)C(c1ccccc1)c1ccccc1 (configuration not stated)	98.5%
O=C1Nc2ccccc2/C1=C\c1c(Cl)[nH]c2ccccc12	102%

target: CHEK1 (human) (UniProt O14757); test: as above; conditions: compound 0.5 µM; ATP 10 µM
Sequence (O14757 whole entry, looked up): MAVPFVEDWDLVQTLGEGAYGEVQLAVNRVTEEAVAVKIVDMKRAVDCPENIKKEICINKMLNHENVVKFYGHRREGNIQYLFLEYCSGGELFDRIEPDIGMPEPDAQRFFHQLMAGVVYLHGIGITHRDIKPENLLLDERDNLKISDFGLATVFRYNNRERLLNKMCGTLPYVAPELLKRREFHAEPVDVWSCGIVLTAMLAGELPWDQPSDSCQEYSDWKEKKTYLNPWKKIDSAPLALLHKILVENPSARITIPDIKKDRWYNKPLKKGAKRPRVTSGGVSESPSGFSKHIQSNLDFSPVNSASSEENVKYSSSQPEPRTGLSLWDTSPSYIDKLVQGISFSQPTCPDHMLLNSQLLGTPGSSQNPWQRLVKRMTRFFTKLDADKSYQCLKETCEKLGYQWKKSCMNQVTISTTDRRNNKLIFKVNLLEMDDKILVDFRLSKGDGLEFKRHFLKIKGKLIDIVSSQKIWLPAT

SMILES	residual activity
O=c1cc(-c2cccc3c2Sc2ccccc2S3)oc(N2CCOCC2)c1	109%
O=C1Cc2c([nH]c3ccc([N+](=O)[O-])cc23)-c2ccccc2N1	37.5%
CC(C)(C)c1nc2c3ccc(F)cc3c3c(=O)[nH]ccc3c2[nH]1	22.9%
O=C(NC(NC(=S)Nc1ccc(F)c([N+](=O)[O-])c1)C(Cl)(Cl)Cl)C(c1ccccc1)c1ccccc1 (configuration not stated)	100%
O=C1Nc2ccccc2/C1=C\c1c(Cl)[nH]c2ccccc12	93.7%

system: ARAF (human), P10398 [Y301D/Y302D]; test: as above; conditions: compound 0.5 µM; ATP 10 µM

SMILES	residual activity
Nc1nc(Nc2ccc(S(N)(=O)=O)cc2)nn1C(=S)Nc1c(F)cccc1F	129%
